Assay results as given in patent EP2905024A1 (Institut Quimic De Sarriá Cets, Fundació Privada, priority 2014, dated 2015).

Assays:
[1] = test system: subgenomic HCV genotype 1b replicon, I389/NS3-3'/ LucUbiNeo-ET; assay: in vitro antiviral activity: luciferase assay in LucUbiNeo-ET HCV replicon cells; format: cell-based; conditions: Hepatitis C virus, 48 h, 2 days of incubation, luciferase readout, mean of duplicates
From the text: (§1) To analyze the antiviral activity of the compounds, we used a stable cell line, LucUbiNeo-ET, that contains a subgenomic HCV genotype 1b replicon, I389/NS3-3'/ LucUbiNeo-ET, that express luciferase constitutively (Krieger et al, JVI 2001; 75:4614; Frese et al., JGV 2003; 84: 1253-1259). To evaluate the cellular toxicity, we use other cell line, Huh-7/Lunet (Friebe et al., JVI 2005; 79: 380-392), that originally carried a selectable luciferase HCV 1b replicon and was cured by treatment with an HCV-specific inhibitor. These cells are characterized by high permissiveness for HCV RNA replication. LucUbiNeo-ET cell line was cultured at 37°C in a humidified atmosphere with 5% CO2 in Dulbecco's modified Eagle medium (D-MEM) supplemented with high glucose concentration (4.5g/l) (Invitrogen), 10% (vol/vol) heat-inactivated fetal bovine serum (Hyclone, Cultek), 2mM L-Glutamine (Sigma-aldrich), 1mM sodium pyruvate (Sigma-aldrich), 1% MEM NEEA (Sigma-aldrich), and 0.5 mg/ml of Geneticin (G418) (Gibco, Invitrogen). Cured or Huh-7/Lunet cell line was maintained at the same conditions as described above without the addition of Geneticin.
(§2) Antiviral activity was carried out in white-clear bottom 96-well plates, and cytotoxicity assays were performed in clear 96-well plates. Cells were seeded at a density of 10^4/well in 100ul D-MEM without selection of antibiotics. After 24h, nine fivefold serial dilution of compounds, with 3 replicates at each dilution, were prepared in D-MEM and added to the appropriate wells, yielding concentrations of 125 to 0,00032 ug/ml in a final volume of 100 ul of D-MEM. Following 2 days of incubation, we determined the antiviral activity (EC50) by quantifying the luciferase with the Luciferase Bright Glo assay (Promega). Briefly, LucUbiNeo-ET cells were harvested with the addition of 100 ul of luciferase per well, and after 2 minutes of shaking, the light was read in a Luminometer Fluoroskan Ascent FL. Toxicity (CC50) was analysed in the Lunet/HuH7 cells by the addition of 10 ul of MTT (3-(4,5-dimethylthiazol-2-yl)-2,5-diphenyltetrazolium bromide) per well. After 4h of incubation at 37°C in a humidified atmosphere with 5% CO2, the amount of formazan produced was quantified spectrophotometrically at 550/620 nm [C. Pannecouque et al, Nature protocol 2008; 3 (3): 427-434]. The EC50 and CC50 values were calculated for each compound. These assays were done in duplicate and the results shown in Table 1 represent the mean value of these duplicates.

cytotoxicity assay (MTT) = format: cell-based; conditions: human, Huh-7/Lunet cells (cured HCV replicon cells), Lunet/HuH7 cells, 2 days of incubation, mean of duplicates
From the text: as §1, §2

SMILES | EC50 [1] | CC50 at 2 days (cytotoxicity assay (MTT))
CCn1c(=O)c(-c2c(Cl)cccc2Cl)cc2c(N)nc(Nc3ccccc3)nc21 [Example 54, 4-amino-6-(2,6-dichlorophenyl)-8-ethyl-2-(phenylamino)pyrido[2,3-d] pyrimidine-7(8H)-one] | 1 to 5 µM | ≥ 25 µM
CCCn1c(=O)c(-c2c(Cl)cccc2Cl)cc2c(N)nc(Nc3ccccc3)nc21 [Example 55, 4-amino-6-(2,6-dichlorophenyl)-2-(phenylamino)-8-propylpyrido[2,3-d] pyrimidine-7(8H)-one] | 1 to 5 µM | ≥ 25 µM
CCCCn1c(=O)c(-c2c(Cl)cccc2Cl)cc2c(N)nc(Nc3ccccc3)nc21 [Example 56, 4-amino-8-butyl-6-(2,6-dichlorophenyl)-2-(phenylamino)pyrido[2,3-d] pyrimidine-7(8H)-one] | 5 to 22 µM | ≥ 25 µM
CC(C)Cn1c(=O)c(-c2c(Cl)cccc2Cl)cc2c(N)nc(Nc3ccccc3)nc21 [Example 57, 4-amino-6-(2,6-dichlorophenyl)-8-isobutyl-2-(phenylamino)pyrido[2,3-d] pyrimidine-7(8H)-one] | < 1 µM | ≥ 25 µM
COCCn1c(=O)c(-c2c(Cl)cccc2Cl)cc2c(N)nc(Nc3ccccc3)nc21 [Example 58, 4-amino-6-(2,6-dichlorophenyl)-8-(2-methoxyethyl)-2-(phenylamino) pyrido[2,3-d]pyrimidine-7(8H)-one] | < 1 µM | ≥ 25 µM
Nc1nc(Nc2ccccc2)nc2c1cc(-c1c(Cl)cccc1Cl)c(=O)n2CCO [Example 59, 4-amino-6-(2,6-dichlorophenyl)-8-(2-hydroxyethyl)-2-(phenylamino) pyrido[2,3-d]pyrimidine-7(8H)-one] | 1 to 5 µM | ≥ 25 µM
Cn1c(=O)c(-c2c(Cl)cccc2Cl)cc2c(N)nc(Nc3ccc(Br)cc3)nc21 [Example 60, 4-amino-2-((4-bromophenyl)amino)-6-(2,6-dichlorophenyl)-8-methylpyrido[2,3-d]pyrimidine-7(8H)-one] | < 1 µM | < 10 µM
CN1CCN(c2ccc(Nc3nc(N)c4cc(-c5c(Cl)cccc5Cl)c(=O)n(C)c4n3)cc2)CC1 [Example 61] | < 1 µM | < 10 µM
